According to patent US20130072430A1, “METHODS FOR TREATMENT OR PROPHYLAXIS OF KIDNEY OR LIVER DYSFUNCTION” (NPS PHARMACEUTICALS, INC., priority 2010, published 2013):

System: Human patients with short bowel syndrome
Assay: Example 1: liver diagnostic biomarkers (total bilirubin, ALT, AST, ALP) in short bowel syndrome patients, every four weeks for 24 weeks
Assay type: in vivo
Description: Human patients with short bowel syndrome were divided into three groups: a control group (16 total individuals) to receive placebo, an experimental group (35 total individuals) to receive teduglutide at 0.05 mg/kg/day throughout the study, and an experimental group (32 total individuals) to receive teduglutide at 0.1 mg/kg/day throughout the study. Patients were treated by subcutaneous injection of placebo or the appropriate dose of teduglutide. As individuals with short bowel syndrome are likely to experience associated liver and kidney disease, known biomarkers of liver and kidney function were monitored every four weeks, for 24 weeks. The liver biomarkers tested included total bilirubin, ALT and AST and ALP. The kidney biomarkers tested included urea nitrogen, creatinine and GFR. Before administration of placebo or teduglutide, diagnostic biomarker levels were tested to establish a baseline for each individual.
To visualize the effect of GLP-2 on the levels of the diagnostic biomarkers, the average change from baseline was calculated for the placebo and teduglutide treated groups for each visit after a baseline was established. The average change from baseline of each group is depicted in FIGS. […]. The numerical figures for each diaanostic biomarker at each time point are depicted in Table 1.
The efficacy of teduglutide in treating liver dysfunction was further tested by sorting the data into two groups: individuals with abnormal baseline values of liver diagnostic biomarkers; and individuals with normal baseline values of liver diagnostic biomarkers. The mean diagnostic biomarker change from baseline for these two groups is shown for ALT (FIGS. 5 and 6) and AST (FIGS. 7 and 8). […] These changes were significant when compared to baseline levels for the group, and when compared to placebo (see FIGS. 5 and 7).
The raw data for this sorting is reproduced in Table 2 below.

[1] = Week 12, range −5%<= and <=5%, teduglutide 0.05 mg/kg/day
[2] = Week 12, range −5%<= and <=5%, teduglutide 0.1 mg/kg/day
[3] = Week 16, range <−5%, teduglutide 0.05 mg/kg/day
[4] = Week 16, range <−5%, teduglutide 0.1 mg/kg/day
[5] = Week 16, range >5%, teduglutide 0.05 mg/kg/day
[6] = Week 16, range >5%, teduglutide 0.1 mg/kg/day
[7] = Week 16, range −5%<= and <=5%, teduglutide 0.05 mg/kg/day
[8] = Week 16, range −5%<= and <=5%, teduglutide 0.1 mg/kg/day
[9] = Week 20, range <−5%, teduglutide 0.05 mg/kg/day
[10] = Week 20, range <−5%, teduglutide 0.1 mg/kg/day
[11] = Week 20, range >5%, teduglutide 0.05 mg/kg/day
[12] = Week 20, range >5%, teduglutide 0.1 mg/kg/day
[13] = Week 20, range −5%<= and <=5%, teduglutide 0.05 mg/kg/day
[14] = Week 20, range −5%<= and <=5%, teduglutide 0.1 mg/kg/day
[15] = Week 24, range <−5%, teduglutide 0.05 mg/kg/day
[16] = Week 24, range <−5%, teduglutide 0.1 mg/kg/day
[17] = Week 24, range >5%, teduglutide 0.05 mg/kg/day
[18] = Week 24, range >5%, teduglutide 0.1 mg/kg/day
[19] = Week 24, range −5%<= and <=5%, teduglutide 0.05 mg/kg/day
[20] = Week 24, range −5%<= and <=5%, teduglutide 0.1 mg/kg/day
[21] = compared to baseline and to placebo

CC[C@H](C)[C@H](NC(=O)[C@H](Cc1ccccc1)NC(=O)[C@H](CC(=O)O)NC(=O)[C@H](CCCNC(=N)N)NC(=O)[C@H](C)NC(=O)[C@H](C)NC(=O)[C@H](CC(C)C)NC(=O)[C@H](CC(N)=O)NC(=O)[C@H](CC(=O)O)NC(=O)[C@H](CC(C)C)NC(=O)[C@@H](NC(=O)[C@@H](NC(=O)[C@H](CC(N)=O)NC(=O)[C@H](CCSC)NC(=O)[C@H](CCC(=O)O)NC(=O)[C@H](CC(=O)O)NC(=O)[C@H](CO)NC(=O)[C@H](Cc1ccccc1)NC(=O)[C@H](CO)NC(=O)CNC(=O)[C@H](CC(=O)O)NC(=O)CNC(=O)[C@@H](N)Cc1c[nH]cn1)[C@@H](C)O)[C@@H](C)CC)C(=O)N[C@@H](CC(N)=O)C(=O)N[C@@H](Cc1c[nH]c2ccccc12)C(=O)N[C@@H](CC(C)C)C(=O)N[C@H](C(=O)N[C@@H](CCC(N)=O)C(=O)N[C@H](C(=O)N[C@@H](CCCCN)C(=O)N[C@H](C(=O)N[C@H](C(=O)N[C@@H](CC(=O)O)C(=O)O)[C@@H](C)O)[C@@H](C)CC)[C@@H](C)O)[C@@H](C)CC [teduglutide]
ALT (SGPT) change from baseline: patients in range, n(%) [1]: 4(11.4%) | AST (SGOT) change from baseline: patients in range, n(%) [1]: 3(8.6%) | TOTAL BILIRUBIN change from baseline: patients in range, n(%) [1]: 4(11.4%) | ALKALINE PHOSPHATASE change from baseline: patients in range, n(%) [2]: 1(3.1%) | ALT (SGPT) change from baseline: patients in range, n(%) [2]: 2(6.3%) | AST (SGOT) change from baseline: patients in range, n(%) [2]: 3(9.4%) | TOTAL BILIRUBIN change from baseline: patients in range, n(%) [2]: 6(18.8%) | ALKALINE PHOSPHATASE change from baseline: patients in range, n(%) [3]: 20(57.1%) | AST (SGOT) change from baseline: patients in range, n(%) [3]: 14(40.0%) | TOTAL BILIRUBIN change from baseline: patients in range, n(%) [3]: 14(40.0%) | ALKALINE PHOSPHATASE change from baseline: patients in range, n(%) [4]: 21(65.6%) | AST (SGOT) change from baseline: patients in range, n(%) [4]: 18(56.3%) | TOTAL BILIRUBIN change from baseline: patients in range, n(%) [4]: 14(43.8%) | ALKALINE PHOSPHATASE change from baseline: patients in range, n(%) [5]: 6(17.1%) | ALT (SGPT) change from baseline: patients in range, n(%) [5]: 12(34.3%) | AST (SGOT) change from baseline: patients in range, n(%) [5]: 8(22.9%) | TOTAL BILIRUBIN change from baseline: patients in range, n(%) [5]: 9(25.7%) | ALKALINE PHOSPHATASE change from baseline: patients in range, n(%) [6]: 7(21.9%) | ALT (SGPT) change from baseline: patients in range, n(%) [6]: 9(28.1%) | AST (SGOT) change from baseline: patients in range, n(%) [6]: 8(25.0%) | TOTAL BILIRUBIN change from baseline: patients in range, n(%) [6]: 6(18.8%) | ALT (SGPT) change from baseline: patients in range, n(%) (Week 16, range >−5%, teduglutide 0.05 mg/kg/day): 16(45.7%) | ALT (SGPT) change from baseline: patients in range, n(%) (Week 16, range >−5%, teduglutide 0.1 mg/kg/day): 19(59.4%) | ALKALINE PHOSPHATASE change from baseline: patients in range, n(%) [7]: 2(5.7%) | ALT (SGPT) change from baseline: patients in range, n(%) [7]: 0(0.0%) | AST (SGOT) change from baseline: patients in range, n(%) [7]: 6(17.1%) | TOTAL BILIRUBIN change from baseline: patients in range, n(%) [7]: 3(8.6%) | ALKALINE PHOSPHATASE change from baseline: patients in range, n(%) [8]: 2(6.3%) | ALT (SGPT) change from baseline: patients in range, n(%) [8]: 2(6.3%) | AST (SGOT) change from baseline: patients in range, n(%) [8]: 3(9.4%) | TOTAL BILIRUBIN change from baseline: patients in range, n(%) [8]: 8(25.0%) | ALKALINE PHOSPHATASE change from baseline: patients in range, n(%) [9]: 22(62.9%) | ALT (SGPT) change from baseline: patients in range, n(%) [9]: 17(48.6%) | AST (SGOT) change from baseline: patients in range, n(%) [9]: 17(48.6%) | TOTAL BILIRUBIN change from baseline: patients in range, n(%) [9]: 12(34.3%) | ALKALINE PHOSPHATASE change from baseline: patients in range, n(%) [10]: 19(59.4%) | ALT (SGPT) change from baseline: patients in range, n(%) [10]: 19(59.4%) | AST (SGOT) change from baseline: patients in range, n(%) [10]: 16(50.0%) | TOTAL BILIRUBIN change from baseline: patients in range, n(%) [10]: 14(43.8%) | ALKALINE PHOSPHATASE change from baseline: patients in range, n(%) [11]: 4(11.4%) | ALT (SGPT) change from baseline: patients in range, n(%) [11]: 9(25.7%) | AST (SGOT) change from baseline: patients in range, n(%) [11]: 6(17.1%) | TOTAL BILIRUBIN change from baseline: patients in range, n(%) [11]: 7(20.0%) | ALKALINE PHOSPHATASE change from baseline: patients in range, n(%) [12]: 9(28.1%) | ALT (SGPT) change from baseline: patients in range, n(%) [12]: 8(25.0%) | AST (SGOT) change from baseline: patients in range, n(%) [12]: 9(28.1%) | TOTAL BILIRUBIN change from baseline: patients in range, n(%) [12]: 9(28.1%) | ALKALINE PHOSPHATASE change from baseline: patients in range, n(%) [13]: 1(2.9%) | ALT (SGPT) change from baseline: patients in range, n(%) [13]: 1(2.9%) | AST (SGOT) change from baseline: patients in range, n(%) [13]: 4(11.4%) | TOTAL BILIRUBIN change from baseline: patients in range, n(%) [13]: 6(17.1%) | ALKALINE PHOSPHATASE change from baseline: patients in range, n(%) [14]: 1(3.1%) | ALT (SGPT) change from baseline: patients in range, n(%) [14]: 2(6.3%) | AST (SGOT) change from baseline: patients in range, n(%) [14]: 3(9.4%) | TOTAL BILIRUBIN change from baseline: patients in range, n(%) [14]: 6(18.8%) | ALKALINE PHOSPHATASE change from baseline: patients in range, n(%) [15]: 21(60.0%) | ALT (SGPT) change from baseline: patients in range, n(%) [15]: 18(51.4%) | AST (SGOT) change from baseline: patients in range, n(%) [15]: 17(48.6%) | TOTAL BILIRUBIN change from baseline: patients in range, n(%) [15]: 8(22.9%) | ALKALINE PHOSPHATASE change from baseline: patients in range, n(%) [16]: 20(62.5%) | ALT (SGPT) change from baseline: patients in range, n(%) [16]: 18(56.3%) | AST (SGOT) change from baseline: patients in range, n(%) [16]: 15(46.9%) | TOTAL BILIRUBIN change from baseline: patients in range, n(%) [16]: 11(34.4%) | ALKALINE PHOSPHATASE change from baseline: patients in range, n(%) [17]: 4(11.4%) | ALT (SGPT) change from baseline: patients in range, n(%) [17]: 4(11.4%) | AST (SGOT) change from baseline: patients in range, n(%) [17]: 6(17.1%) | TOTAL BILIRUBIN change from baseline: patients in range, n(%) [17]: 10(28.6%) | ALKALINE PHOSPHATASE change from baseline: patients in range, n(%) [18]: 5(15.6%) | ALT (SGPT) change from baseline: patients in range, n(%) [18]: 11(34.4%) | AST (SGOT) change from baseline: patients in range, n(%) [18]: 11(34.4%) | TOTAL BILIRUBIN change from baseline: patients in range, n(%) [18]: 10(31.3%) | ALKALINE PHOSPHATASE change from baseline: patients in range, n(%) [19]: 0(0.0%) | ALT (SGPT) change from baseline: patients in range, n(%) [19]: 4(11.4%) | AST (SGOT) change from baseline: patients in range, n(%) [19]: 3(8.6%) | TOTAL BILIRUBIN change from baseline: patients in range, n(%) [19]: 4(11.4%) | ALKALINE PHOSPHATASE change from baseline: patients in range, n(%) [20]: 4(12.5%) | ALT (SGPT) change from baseline: patients in range, n(%) [20]: 0(0.0%) | AST (SGOT) change from baseline: patients in range, n(%) [20]: 3(9.4%) | TOTAL BILIRUBIN change from baseline: patients in range, n(%) [20]: 6(18.8%) | fraction of individuals experiencing a decrease of more than 5% in ALT versus placebo (beginning at 4 weeks after commencement of treatment): greater fraction of individuals experiencing a decrease of more than 5% | ALT change from baseline in patients with abnormal baseline values (FIG. 5) [21]: statistically significant improvements | AST change from baseline in patients with abnormal baseline values (FIG. 7) [21]: statistically significant improvements | average level of ALP relative to baseline (FIG. 4) (groups receiving teduglutide): decreased relative to baseline for the entire period of the study | percent of individuals experiencing an increase of greater than 5% in ALP or ALT versus placebo (groups receiving teduglutide): effective prophylactic against increases in biomarkers associated with liver dysfunction | average decrease of the level of ALT from baseline (FIG. 1) (groups receiving teduglutide, maintained for the entire duration of the study): about 10 U/L | individuals experiencing a decrease in ALP greater than 5% from baseline (within 4 weeks of the beginning of treatment, groups receiving teduglutide): roughly 60%
